Assay results reported in BindingDB's records for doi:10.1016/s0960-894x(00)00026-3 (Universit&#224, 2000).

Assay: Inhibition of Clostridium histolyticum collagenase using a linear regression program

Row | SMILES | Ki [µM]
1 | CC(C(=O)NO)N(Cc1ccc([N+](=O)[O-])cc1)S(=O)(=O)C(F)(F)C(F)(F)C(F)(F)C(F)(F)F (stereo not given) [2-(N-(4-nitrobenzyl)-2,2,12,12,15,15,18,18,18-nonafluorobutan-2-ylsulfonamido)-N-hydroxypropanamide] | 11
2 | CC(C(=O)NO)N(Cc1ccc([N+](=O)[O-])cc1)C(=O)Nc1ccc(F)cc1F (stereo not given) [2-[3-(2,4-Difluoro-phenyl)-1-(4-nitro-benzyl)-ureido]-N-hydroxy-propionamide] | 15
3 | CC(C(=O)O)N(Cc1ccc([N+](=O)[O-])cc1)C(=O)Nc1ccc(F)cc1F (stereo not given) [2-[3-(2,4-Difluoro-phenyl)-1-(4-nitro-benzyl)-ureido]-propionic acid] | 6.2
4 | CC(C(=O)NO)N(Cc1ccc([N+](=O)[O-])cc1)C(=O)Nc1ccc(Cl)c(Cl)c1 (stereo not given) [2-[3-(3,4-Dichloro-phenyl)-1-(4-nitro-benzyl)-ureido]-N-hydroxy-propionamide] | 13
5 | CC(C(=O)O)N(Cc1ccc([N+](=O)[O-])cc1)C(=O)Nc1ccc(Cl)c(Cl)c1 (stereo not given) [2-[3-(3,4-Dichloro-phenyl)-1-(4-nitro-benzyl)-ureido]-propionic acid] | 5
6 | CC(C(=O)NO)N(Cc1ccc([N+](=O)[O-])cc1)C(=O)Nc1cccc(Cl)c1 (stereo not given) [2-[3-(3-Chloro-phenyl)-1-(4-nitro-benzyl)-ureido]-N-hydroxy-propionamide] | 14
7 | CC(C(=O)O)N(Cc1ccc([N+](=O)[O-])cc1)C(=O)Nc1cccc(Cl)c1 (stereo not given) [2-[3-(3-Chloro-phenyl)-1-(4-nitro-benzyl)-ureido]-propionic acid] | 6.1
8 | CC(C(=O)NO)N(Cc1ccc([N+](=O)[O-])cc1)C(=O)Nc1ccc(Cl)cc1 (stereo not given) [2-[3-(4-Chloro-phenyl)-1-(4-nitro-benzyl)-ureido]-N-hydroxy-propionamide] | 18
9 | CC(C(=O)O)N(Cc1ccc([N+](=O)[O-])cc1)C(=O)Nc1ccc(Cl)cc1 (stereo not given) [2-[3-(4-Chloro-phenyl)-1-(4-nitro-benzyl)-ureido]-propionic acid] | 6.5
10 | CC(C(=O)NO)N(Cc1ccc([N+](=O)[O-])cc1)C(=O)Nc1ccc(F)cc1 (stereo not given) [2-[3-(4-Fluoro-phenyl)-1-(4-nitro-benzyl)-ureido]-N-hydroxy-propionamide] | 12
11 | CC(C(=O)O)N(Cc1ccc([N+](=O)[O-])cc1)C(=O)Nc1ccc(F)cc1 (stereo not given) [2-[3-(4-Fluoro-phenyl)-1-(4-nitro-benzyl)-ureido]-propionic acid] | 5.4
12 | CC(C(=O)NO)N(Cc1ccc([N+](=O)[O-])cc1)C(=S)NC(=O)c1ccccc1 (stereo not given) [2-[3-Benzoyl-1-(4-nitro-benzyl)-thioureido]-N-hydroxy-propionamide] | 6
13 | CC(C(=O)O)N(Cc1ccc([N+](=O)[O-])cc1)C(=S)NC(=O)c1ccccc1 (stereo not given) [2-[3-Benzoyl-1-(4-nitro-benzyl)-thioureido]-propionic acid] | 0.9
14 | CC(C(=O)O)N(Cc1ccc([N+](=O)[O-])cc1)C(=O)Nc1cccc2ccccc12 (stereo not given) [2-[3-Naphthalen-1-yl-1-(4-nitro-benzyl)-ureido]-propionic acid] | 4.6
15 | CC(C(=O)NO)N(Cc1ccc([N+](=O)[O-])cc1)Sc1ccc([N+](=O)[O-])cc1[N+](=O)[O-] (stereo not given) [2-[(2,4-Dinitro-phenylsulfanyl)-(4-nitro-benzyl)-amino]-N-hydroxy-propionamide] | 9
16 | CC(C(=O)O)N(Cc1ccc([N+](=O)[O-])cc1)Sc1ccc([N+](=O)[O-])cc1[N+](=O)[O-] (stereo not given) [2-[(2,4-Dinitro-phenylsulfanyl)-(4-nitro-benzyl)-amino]-propionic acid] | 5.1
17 | CC(C(=O)NO)N(Cc1ccc([N+](=O)[O-])cc1)S(=O)(=O)c1cc(Cl)ccc1Cl (stereo not given) [2-[(2,5-Dichloro-benzenesulfonyl)-(4-nitro-benzyl)-amino]-N-hydroxy-propionamide] | 13
18 | CC(C(=O)O)N(Cc1ccc([N+](=O)[O-])cc1)S(=O)(=O)c1cc(Cl)ccc1Cl (stereo not given) [2-[(2,5-Dichloro-benzenesulfonyl)-(4-nitro-benzyl)-amino]-propionic acid] | 3.6
19 | CC(C(=O)O)N(Cc1ccc([N+](=O)[O-])cc1)S(=O)(=O)c1ccccc1[N+](=O)[O-] (stereo not given) [2-[(2-Nitro-benzenesulfonyl)-(4-nitro-benzyl)-amino]-propionic acid] | 4.8
20 | CC(C(=O)NO)N(Cc1ccc([N+](=O)[O-])cc1)S(=O)(=O)c1cc(Cl)cc(Cl)c1O (stereo not given) [2-[(3,5-Dichloro-2-hydroxy-benzenesulfonyl)-(4-nitro-benzyl)-amino]-N-hydroxy-propionamide] | 12
21 | CC(C(=O)O)N(Cc1ccc([N+](=O)[O-])cc1)S(=O)(=O)c1cc(Cl)cc(Cl)c1O (stereo not given) [2-[(3,5-Dichloro-2-hydroxy-benzenesulfonyl)-(4-nitro-benzyl)-amino]-propionic acid] | 2.5
22 | CC(C(=O)O)N(Cc1ccc([N+](=O)[O-])cc1)S(=O)(=O)c1ccc([N+](=O)[O-])c(Cl)c1 (stereo not given) [2-[(3-Chloro-4-nitro-benzenesulfonyl)-(4-nitro-benzyl)-amino]-propionic acid] | 3.3
23 | CC(C(=O)O)N(Cc1ccc([N+](=O)[O-])cc1)S(=O)(=O)c1cccc([N+](=O)[O-])c1 (stereo not given) [2-[(3-Nitro-benzenesulfonyl)-(4-nitro-benzyl)-amino]-propionic acid] | 5.5

Row | SMILES | Ki [µM]
24 | COc1ccc(S(=O)(=O)N(Cc2ccc([N+](=O)[O-])cc2)C(C)C(=O)O)cc1NC(=O)OC(C)(C)C (stereo not given) [2-[(3-tert-Butoxycarbonylamino-4-methoxy-benzenesulfonyl)-(4-nitro-benzyl)-amino]-propionic acid] | 2.1
25 | CC(C(=O)O)N(Cc1ccc([N+](=O)[O-])cc1)S(=O)(=O)c1cccc(NC(=O)OC(C)(C)C)c1 (stereo not given) [2-[(3-tert-Butoxycarbonylamino-benzenesulfonyl)-(4-nitro-benzyl)-amino]-propionic acid] | 2.6
26 | CC(=O)c1ccc(S(=O)(=O)N(Cc2ccc([N+](=O)[O-])cc2)C(C)C(=O)NO)cc1 (stereo not given) [2-[(4-Acetyl-benzenesulfonyl)-(4-nitro-benzyl)-amino]-N-hydroxy-propionamide] | 9
27 | CC(=O)c1ccc(S(=O)(=O)N(Cc2ccc([N+](=O)[O-])cc2)C(C)C(=O)O)cc1 (stereo not given) [2-[(4-Acetyl-benzenesulfonyl)-(4-nitro-benzyl)-amino]-propionic acid] | 2.1
28 | CC(=O)Nc1ccc(S(=O)(=O)N(Cc2ccc([N+](=O)[O-])cc2)C(C)C(=O)NO)cc1 (stereo not given) [2-[(4-Acetylamino-benzenesulfonyl)-(4-nitro-benzyl)-amino]-N-hydroxy-propionamide] | 11
29 | CC(=O)Nc1ccc(S(=O)(=O)N(Cc2ccc([N+](=O)[O-])cc2)C(C)C(=O)O)cc1 (stereo not given) [2-[(4-Acetylamino-benzenesulfonyl)-(4-nitro-benzyl)-amino]-propionic acid] | 3.1
30 | CC(C(=O)NO)N(Cc1ccc([N+](=O)[O-])cc1)S(=O)(=O)c1ccc(Br)cc1 (stereo not given) [2-[(4-Bromo-benzenesulfonyl)-(4-nitro-benzyl)-amino]-N-hydroxy-propionamide] | 30
31 | CC(C(=O)O)N(Cc1ccc([N+](=O)[O-])cc1)S(=O)(=O)c1ccc(Br)cc1 (stereo not given) [2-[(4-Bromo-benzenesulfonyl)-(4-nitro-benzyl)-amino]-propionic acid] | 10
32 | CC(C(=O)NO)N(Cc1ccc([N+](=O)[O-])cc1)S(=O)(=O)c1ccc(Cl)cc1 (stereo not given) [2-[(4-Chloro-benzenesulfonyl)-(4-nitro-benzyl)-amino]-N-hydroxy-propionamide] | 32
33 | CC(C(=O)O)N(Cc1ccc([N+](=O)[O-])cc1)S(=O)(=O)c1ccc(Cl)cc1 (stereo not given) [2-[(4-Chloro-benzenesulfonyl)-(4-nitro-benzyl)-amino]-propionic acid] | 9
34 | CC(C(=O)NO)N(Cc1ccc([N+](=O)[O-])cc1)S(=O)(=O)c1ccc(F)cc1 (stereo not given) [2-[(4-Fluoro-benzenesulfonyl)-(4-nitro-benzyl)-amino]-N-hydroxy-propionamide] | 35
35 | CC(C(=O)O)N(Cc1ccc([N+](=O)[O-])cc1)S(=O)(=O)c1ccc(F)cc1 (stereo not given) [2-[(4-Fluoro-benzenesulfonyl)-(4-nitro-benzyl)-amino]-propionic acid] | 10
36 | CC(C(=O)O)N(Cc1ccc([N+](=O)[O-])cc1)S(=O)(=O)c1ccc(I)cc1 (stereo not given) [2-[(4-Iodo-benzenesulfonyl)-(4-nitro-benzyl)-amino]-propionic acid] | 12
37 | COc1ccc(S(=O)(=O)N(Cc2ccc([N+](=O)[O-])cc2)C(C)C(=O)O)cc1 (stereo not given) [2-[(4-Methoxy-benzenesulfonyl)-(4-nitro-benzyl)-amino]-propionic acid] | 5.2
38 | CC(C(=O)O)N(Cc1ccc([N+](=O)[O-])cc1)S(=O)(=O)c1ccc([N+](=O)[O-])cc1 (stereo not given) [2-[(4-Nitro-benzenesulfonyl)-(4-nitro-benzyl)-amino]-propionic acid] | 5.3
39 | Cc1cc(C)c(S(=O)(=O)N(Cc2ccc([N+](=O)[O-])cc2)C(C)C(=O)O)c(C)c1 (stereo not given) [2-[(4-Nitro-benzyl)-(2,4,6-trimethyl-benzenesulfonyl)-amino]-propionic acid] | 6
40 | CC(C(=O)O)N(Cc1ccc([N+](=O)[O-])cc1)Sc1ccccc1[N+](=O)[O-] (stereo not given) [2-[(4-Nitro-benzyl)-(2-nitro-phenylsulfanyl)-amino]-propionic acid] | 6.3
41 | CC(C(=O)O)N(Cc1ccc([N+](=O)[O-])cc1)S(=O)(=O)c1cccc(C(F)(F)F)c1 (stereo not given) [2-[(4-Nitro-benzyl)-(3-trifluoromethyl-benzenesulfonyl)-amino]-propionic acid] | 0.3
42 | CC(C(=O)O)N(Cc1ccc([N+](=O)[O-])cc1)Sc1ccc([N+](=O)[O-])cc1 (stereo not given) [2-[(4-Nitro-benzyl)-(4-nitro-phenylsulfanyl)-amino]-propionic acid] | 5.5
43 | CC(C(=O)O)N(Cc1ccc([N+](=O)[O-])cc1)S(=O)(=O)C(F)(F)C(F)(F)C(F)(F)C(F)(F)F (stereo not given) [2-[(4-Nitro-benzyl)-(nonafluorobutane-1-sulfonyl)-amino]-propionic acid] | 2.3
44 | CC(C(=O)O)N(Cc1ccc([N+](=O)[O-])cc1)S(=O)(=O)c1cccc2cccnc12 (stereo not given) [2-[(4-Nitro-benzyl)-(quinoline-8-sulfonyl)-amino]-propionic acid] | 1.2
45 | CC(C(=O)O)N(Cc1ccc([N+](=O)[O-])cc1)S(=O)(=O)c1cccs1 (stereo not given) [2-[(4-Nitro-benzyl)-(thiophene-2-sulfonyl)-amino]-propionic acid] | 2.1
